US20260022142A1, “MACROCYCLIC IMMUNOMODULATORS” (Bristol-Myers Squibb Company, priority 2022, published 2026)
Bridge positions count the residues as written; N and C are the ends. Square brackets hold non-standard residues; d marks the D form. Peptide text beside a SMILES is read from it. * marks the point of attachment. ξ: configuration not given here. Phe(3-CF3) = N[C@@H](Cc1cccc(C(F)(F)F)c1)C(=O)O; Ala(morpholin-4-yl) = N[C@@H](CN1CCOCC1)C(=O)O; Phe(4-COOH) = N[C@@H](Cc1ccc(C(=O)O)cc1)C(=O)O; Bip = N[C@@H](Cc1ccc(-c2ccccc2)cc1)C(=O)O; Phe(3-Me) = Cc1cccc(C[C@H](N)C(=O)O)c1; Phe(4-F) = N[C@@H](Cc1ccc(F)cc1)C(=O)O; NH(CH2)12COOH = O=C(O)CCCCCCCCCCCCN*; Val(3-OH) = CC(C)(O)[C@H](N)C(=O)O; hArg = N=C(N)NCCCC[C@H](N)C(=O)O; 4Pal = N[C@@H](Cc1ccncc1)C(=O)O; Cha = N[C@@H](CC1CCCCC1)C(=O)O; Cit = NC(=O)NCCC[C@H](N)C(=O)O; Thr(3ξ) = CC(O)[C@H](N)C(=O)O; Tle = CC(C)(C)[C@H](N)C(=O)O; 12Ado = NCCCCCCCCCCCC(=O)O; Carboxymethyl = O=C(O)C*; Orn = NCCC[C@H](N)C(=O)O; Aun = NCCCCCCCCCCC(=O)O; Dab = NCC[C@H](N)C(=O)O; Dap = NC[C@H](N)C(=O)O; AEEA = NCCOCCOCC(=O)O

Target: T1, PD-1/PD-L1 interaction (PE-labeled human PD-L1-Ig binding to Jurkat cell line over-expressing human PD-1) (Homo sapiens, UniProt Q15116)
T1 construct: expressed in transfected cells; host or cells: Jurkat
Experiment: Jurkat-PD-1 Cell Binding High-Content Screening Assay (CBA)
Assay type: cell-based
Details: Jurkat cell line over-expressing human PD-1; PE-labeled PD-L1-Ig 20 nM final; read-out: Jurkat hPD1-PDL1 IC50
In short: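 Jurkat cells over-expressing human PD-1 (8×10^3 per well, DMEM/10% FCS) preincubated with compound 2 h at 37° C, then PE-labeled human PD-L1-Ig (20 nM final) added for 1 h. Cells fixed with paraformaldehyde, Hoechst-stained, and bound fluorescence quantified by high-content imaging.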

T1 sequence (Q15116 25-288): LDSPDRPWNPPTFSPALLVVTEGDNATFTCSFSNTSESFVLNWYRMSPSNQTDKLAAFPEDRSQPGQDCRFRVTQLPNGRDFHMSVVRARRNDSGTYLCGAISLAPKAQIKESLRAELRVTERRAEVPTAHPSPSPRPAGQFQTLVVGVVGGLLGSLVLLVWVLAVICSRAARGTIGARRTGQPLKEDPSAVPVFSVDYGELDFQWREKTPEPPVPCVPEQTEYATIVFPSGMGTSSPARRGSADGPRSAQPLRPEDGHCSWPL

Structure (SMILES) | IC50 [µM]
CC(=O)NCCCC[C@@H]1NC(=O)[C@H](Cc2ccc(-c3ccccc3)cc2)NC(=O)[C@H](C(C)C)NC(=O)[C@H](Cc2cccc(C)c2)NC(=O)[C@H](CC(=O)O)NC(=O)[C@H](Cc2ccc(OCC(=O)O)cc2)NC(=O)[C@H](CCCNC(=N)N)NC(=O)CSC[C@@H](C(=O)N[C@@H](CCN)C(=O)NCCCCCCCCCCC(=O)O)NC(=O)[C@H](C(C)O)NC(=O)[C@H](C(C)(C)C)NC(=O)[C@H](CC2CCCCC2)NC(=O)[C@H](CCN)NC(=O)[C@@H](CC(C)C)NC(=O)[C@H](CCCN)NC1=O (stereo partly drawn) [Compound 3560] ({CH2CO}-RY(Carboxymethyl)D[Phe(3-Me)]V[Bip]K(Ac)[Orn][dL][Dab][Cha][Tle][Thr(3ξ)]C[Dab][Aun]-OH; thioether N-14) | 0.0179
Cc1cccc(C[C@@H]2NC(=O)[C@H](CC(=O)O)NC(=O)[C@H](Cc3ccc(OCC(=O)O)cc3)NC(=O)[C@H](CN)NC(=O)CSC[C@@H](C(=O)N[C@@H](CCN)C(=O)NCCOCCOCC(=O)NCCCCCCCCCCC(=O)O)NC(=O)[C@H](CCCN)NC(=O)[C@H](C(C)C)NC(=O)[C@H](CC3CCCCC3)NC(=O)[C@H](CCN)NC(=O)[C@@H](CC(C)C)NC(=O)[C@H](CCCN)NC(=O)[C@H](Cc3ccc(O)cc3)NC(=O)[C@H](Cc3ccc(-c4ccccc4)cc3)NC(=O)[C@H](Cc3ccc(F)cc3)NC2=O)c1 [Compound 2070] ({CH2CO}-[Dap]Y(Carboxymethyl)D[Phe(3-Me)][Phe(4-F)][Bip]Y[Orn][dL][Dab][Cha]V[Orn]C[Dab][AEEA][Aun]-OH; thioether N-14) | 0.0116
Cc1cccc(C[C@@H]2NC(=O)[C@H](CC(=O)O)NC(=O)[C@H](Cc3ccc(OCC(=O)O)cc3)NC(=O)[C@H](CCCCNC(=N)N)NC(=O)CSC[C@@H](C(=O)N[C@@H](CCN)C(=O)N[C@@H](CO)C(=O)NCCCCCCCCCCCC(=O)O)NC(=O)[C@H](C(C)O)NC(=O)[C@H](C(C)C)NC(=O)[C@H](CC3CCCCC3)NC(=O)[C@H](CCN)NC(=O)[C@@H](CC(C)C)NC(=O)[C@H](CCCN)NC(=O)[C@H](CCCNC(N)=O)NC(=O)[C@H](Cc3ccc(-c4ccccc4)cc3)NC(=O)[C@H](C(C)C)NC2=O)c1 (stereo partly drawn) [Compound 3570] ({CH2CO}-[hArg]Y(Carboxymethyl)D[Phe(3-Me)]V[Bip][Cit][Orn][dL][Dab][Cha]V[Thr(3ξ)]C[Dab]S[12Ado]-OH; thioether N-14) | 0.0163
Cc1cccc(C[C@@H]2NC(=O)[C@H](CC(=O)O)NC(=O)[C@H](Cc3ccc(OCC(=O)O)cc3)NC(=O)[C@H](CN)NC(=O)CSC[C@@H](C(=O)N[C@@H](CCN)C(=O)NCCCCCCCCCCC(=O)O)NC(=O)[C@H]([C@@H](C)O)NC(=O)[C@H](C(C)C)NC(=O)[C@H](CC3CCCCC3)NC(=O)[C@H](CCN)NC(=O)[C@@H](CC(C)C)NC(=O)[C@H](CCCN)NC(=O)[C@H](Cc3ccc(O)cc3)NC(=O)[C@H](Cc3ccc(-c4ccccc4)cc3)NC(=O)[C@H](C(C)C)NC2=O)c1 [Compound 2717] ({CH2CO}-[Dap]Y(Carboxymethyl)D[Phe(3-Me)]V[Bip]Y[Orn][dL][Dab][Cha]VTC[Dab][Aun]-OH; thioether N-14) | 0.0171
CC(C)C[C@H]1NC(=O)[C@H](CCCN)NC(=O)[C@H](Cc2ccc(C(=O)O)cc2)NC(=O)[C@H](Cc2ccc(-c3ccccc3)cc2)NC(=O)[C@H](Cc2ccc(C(=O)O)cc2)NC(=O)[C@H](Cc2cccc(C(F)(F)F)c2)NC(=O)[C@H](CC(=O)O)NC(=O)[C@H](Cc2ccc(OCC(=O)O)cc2)NC(=O)[C@H](CN2CCOCC2)NC(=O)CSC[C@@H](C(=O)N[C@@H](CCN)C(=O)NCCCCCCCCCCCCC(=O)O)NC(=O)[C@H](CO)NC(=O)[C@H](C(C)(C)O)NC(=O)[C@H](CC2CCCCC2)NC(=O)[C@H](CCN)NC1=O [Compound 2918] ({CH2CO}-[Ala(morpholin-4-yl)]Y(Carboxymethyl)D[Phe(3-CF3)][Phe(4-COOH)][Bip][Phe(4-COOH)][Orn][dL][Dab][Cha][Val(3-OH)]SC[Dab]-{NH(CH2)12COOH}; thioether N-14) | 0.0224

More lines, now with the values ahead:

IC50 [µM] | Structure (SMILES)
0.0112 | Cc1cccc(C[C@@H]2NC(=O)[C@H](CC(=O)O)NC(=O)[C@H](Cc3ccc(OCC(=O)O)cc3)NC(=O)[C@H](C(C)O)NC(=O)CSC[C@@H](C(=O)N[C@@H](CCN)C(=O)NCCCCCCCCCCC(=O)O)NC(=O)[C@H](CO)NC(=O)[C@H](Cc3cnc[nH]3)NC(=O)[C@H](CC3CCCCC3)NC(=O)[C@H](CCN)NC(=O)[C@@H](CC(C)C)NC(=O)[C@H](CCCN)NC(=O)[C@H](Cc3ccc(OCC(=O)O)cc3)NC(=O)[C@H](Cc3ccc(-c4ccccc4)cc3)NC(=O)[C@H](Cc3ccc(OCC(=O)O)cc3)NC2=O)c1 (stereo partly drawn) [Compound 3697] ({CH2CO}-[Thr(3ξ)]Y(Carboxymethyl)D[Phe(3-Me)]Y(Carboxymethyl)[Bip]Y(Carboxymethyl)[Orn][dL][Dab][Cha]HSC[Dab][Aun]-OH; thioether N-14)
0.0739 | Cc1cccc(C[C@@H]2NC(=O)[C@H](CC(=O)O)NC(=O)[C@H](Cc3ccc(OCC(=O)O)cc3)NC(=O)[C@H](CCN)NC(=O)CSC[C@@H](C(=O)N[C@@H](CO)C(=O)NCCCCCCCCCCC(=O)O)NC(=O)[C@H](CO)NC(=O)[C@H](C(C)(C)O)NC(=O)[C@H](CC3CCCCC3)NC(=O)[C@H](Cc3cnc[nH]3)NC(=O)[C@@H](CC(C)C)NC(=O)[C@H](CCCN)NC(=O)[C@H](Cc3ccc(OCC(=O)O)cc3)NC(=O)[C@H](Cc3ccc(-c4ccccc4)cc3)NC(=O)[C@H](Cc3ccc(OCC(=O)O)cc3)NC2=O)c1 [Compound 3724] ({CH2CO}-[Dab]Y(Carboxymethyl)D[Phe(3-Me)]Y(Carboxymethyl)[Bip]Y(Carboxymethyl)[Orn][dL]H[Cha][Val(3-OH)]SCS[Aun]-OH; thioether N-14)
0.0841 | Cc1cccc(C[C@@H]2NC(=O)[C@H](CC(=O)O)NC(=O)[C@H](Cc3ccc(OCC(=O)O)cc3)NC(=O)[C@H](C(C)O)NC(=O)CSC[C@@H](C(=O)N[C@@H](CO)C(=O)NCCCCCCCCCCC(=O)O)NC(=O)[C@H](CO)NC(=O)[C@H](C(C)(C)O)NC(=O)[C@H](CC3CCCCC3)NC(=O)[C@H](Cc3cnc[nH]3)NC(=O)[C@@H](CC(C)C)NC(=O)[C@H](CCCN)NC(=O)[C@H](Cc3ccc(OCC(=O)O)cc3)NC(=O)[C@H](Cc3ccc(-c4ccccc4)cc3)NC(=O)[C@H](Cc3ccc(OCC(=O)O)cc3)NC2=O)c1 (stereo partly drawn) [Compound 3723] ({CH2CO}-[Thr(3ξ)]Y(Carboxymethyl)D[Phe(3-Me)]Y(Carboxymethyl)[Bip]Y(Carboxymethyl)[Orn][dL]H[Cha][Val(3-OH)]SCS[Aun]-OH; thioether N-14)
0.0105 | Cc1cccc(C[C@@H]2NC(=O)[C@H](CC(=O)O)NC(=O)[C@H](Cc3ccc(OCC(=O)O)cc3)NC(=O)[C@H](Cc3ccncc3)NC(=O)CSC[C@@H](C(=O)N[C@@H](CCN)C(=O)NCCOCCOCC(=O)NCCCCCCCCCCCCC(=O)O)NC(=O)[C@H](CO)NC(=O)[C@H](C(C)(C)O)NC(=O)[C@H](CC3CCCCC3)NC(=O)[C@H](CCN)NC(=O)[C@@H](CC(C)C)NC(=O)[C@H](CCCN)NC(=O)[C@H](Cc3ccc(OCC(=O)O)cc3)NC(=O)[C@H](Cc3ccc(-c4ccccc4)cc3)NC(=O)[C@H](Cc3ccc(OCC(=O)O)cc3)NC2=O)c1 [Compound 2251] ({CH2CO}-[4Pal]Y(Carboxymethyl)D[Phe(3-Me)]Y(Carboxymethyl)[Bip]Y(Carboxymethyl)[Orn][dL][Dab][Cha][Val(3-OH)]SC[Dab][AEEA]-{NH(CH2)12COOH}; thioether N-14)
